Assays:
[1] = Balanced dialysis plasma protein binding test (rat); assay type: in vitro ADME
Procedure: 1. Immersing a dialysis membrane (water: 60 minutes, 20% ethanol: 20 minutes, dialysis buffer: 20 minutes). 2. Diluting the test compound in dimethyl sulfoxide (working solution) to 200 μM. 3. Thawing the plasma in a 37° C. water bath and centrifuge the plasma at 3220 g for 10 minutes to remove blood clots. 4. Transferring the supernatant to a new tube and preheating it in a 37° C. water bath for 10 minutes. 5. Assembling HTD dialysis equipment according to the manufacturer's guidelines. 6. Adding 3 μL of 200 μM test compound to 597 μL of plasma and rotating at 1000 rpm for 2 minutes. 7. Transferring 50 μL of spiked plasma to a 96 well plate, then adding 50 μL of dialysis buffer and 200 μL of methanol, using IS * as the T0 sample. 8. Adding 120 μL of spiked plasma and 120 μL of dialysis buffer in duplicate into the chamber of the HTD dialysis device. 9. Covering the dialysis equipment with a breathable cover and incubating the dialysis equipment and the remaining spiked plasma at 37° C. (100 rpm, 5% CO2) for 6 hours. 10. Transferring 50 μL of dialyzed sample from the dialysis buffer and the plasma chamber to a separate 96 well plate, then adding 50 μL of blank plasma or dialysis buffer and 200 μL of methanol, with IS * as the B and P samples. 11. Transferring 50 μL of remaining spiked plasma (as described in step 9) to a 96 well plate, then adding 50 μL of dialysis buffer and 200 μL of methanol, with IS * as the T6 sample. 12. Centrifuging the sample plate at 3220 g for 40 minutes. 13. Transferring 100 μL of supernatant onto an analytical plate containing an appropriate volume of water for LC-MS/MS. 14. Data analysis.

hTRPA1 = hTRPA1 (Homo sapiens, UniProt O75762); experiment: Inhibition rate on different hTRPs: hTRPA1; assay type: cell-based
[2] = Stability assessment of compounds at room temperature under 92.5% humidity (LC-MS); assay type: physicochemical; conditions: 92.5% humidity
Procedure: Taking the compound of Example 21 and KM-001-E1 in WO2021154966A1 as examples, the stability thereof was compared:
Compound of Example 21 and KM-001-E1 were accurately weighed and placed in penicillin bottles, and placed at room temperature under 92.5% humidity (open) conditions for 5-10 days to investigate the stability of the compounds.
• instrument: Thermo U3000-ISQEC • column: Xtimate UHPLC C18 1.8 μm 4.6*50 mm • Column temperature: 35° C. • wavelength: 210 nm, 254 nm • mobile phase A: 0.05% formic acid aqueous solution; mobile phase B: 0.05% formic acid acetonitrile; gradient: 30% B 0-1.2 min, 95% B 1.2-3.3 min, 30% B 3.3-4.5 min;
Analyzing the degradation impurities of each compound under 92.5% humidity conditions using LC-MS: The main impurities in Example 21 had m/z 427.17, with a retention time of 2.55 minutes. After being left for 10 days, the peak area proportion was only 0.3%; The main impurities in KM-001-E1 has m/z=431.14 and m/z=415.16, with retention times of 2.31 minutes and 2.64 minutes, respectively. […] Based on LC-MS and NMR data analysis, it can be inferred that the main impurities produced in Example 21 are ketones, while the main impurities produced in KM-001-E1 are aldehydes and carboxylic acids.

Sequence of hTRPA1 (O75762 whole entry): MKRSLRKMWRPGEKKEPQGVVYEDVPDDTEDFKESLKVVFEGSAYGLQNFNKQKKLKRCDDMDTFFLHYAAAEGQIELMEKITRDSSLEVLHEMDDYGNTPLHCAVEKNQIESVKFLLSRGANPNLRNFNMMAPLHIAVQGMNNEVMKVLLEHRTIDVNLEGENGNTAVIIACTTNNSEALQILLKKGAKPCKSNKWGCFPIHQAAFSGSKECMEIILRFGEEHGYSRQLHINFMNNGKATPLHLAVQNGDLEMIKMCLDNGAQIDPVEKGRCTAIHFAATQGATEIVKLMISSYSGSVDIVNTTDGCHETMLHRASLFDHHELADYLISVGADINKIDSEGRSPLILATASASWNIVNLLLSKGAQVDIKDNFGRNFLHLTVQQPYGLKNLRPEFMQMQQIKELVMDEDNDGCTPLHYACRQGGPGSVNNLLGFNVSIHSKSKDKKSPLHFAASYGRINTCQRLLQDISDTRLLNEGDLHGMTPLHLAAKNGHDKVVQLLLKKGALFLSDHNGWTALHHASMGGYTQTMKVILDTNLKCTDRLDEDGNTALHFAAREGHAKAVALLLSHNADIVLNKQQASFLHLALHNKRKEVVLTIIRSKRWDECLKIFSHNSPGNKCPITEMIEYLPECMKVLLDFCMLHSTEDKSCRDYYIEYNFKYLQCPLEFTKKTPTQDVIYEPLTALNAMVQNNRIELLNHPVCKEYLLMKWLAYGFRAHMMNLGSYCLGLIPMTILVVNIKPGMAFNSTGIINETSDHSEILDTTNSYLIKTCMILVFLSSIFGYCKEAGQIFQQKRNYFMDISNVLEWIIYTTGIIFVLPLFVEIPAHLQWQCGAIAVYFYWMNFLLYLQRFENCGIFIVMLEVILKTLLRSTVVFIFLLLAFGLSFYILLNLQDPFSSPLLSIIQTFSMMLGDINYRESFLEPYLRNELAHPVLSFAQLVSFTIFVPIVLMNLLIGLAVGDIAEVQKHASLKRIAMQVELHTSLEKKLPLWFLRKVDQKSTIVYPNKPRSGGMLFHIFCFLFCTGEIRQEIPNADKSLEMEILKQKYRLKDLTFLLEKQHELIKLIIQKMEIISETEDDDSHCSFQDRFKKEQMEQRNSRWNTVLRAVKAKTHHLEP

recover % [1] [%] | remaining % ([1]; 6 hours) [%] | binding % ([1]; 6 hours dialysis) [%] | dissociated % ([1]; 6 hours dialysis) [%] | inhibition at 0.3 µM (hTRPA1; hTRPA1, 0.3 μM) [%] | Selectivity ratio (hTRPA1; inhibition rate on TRPV3 / inhibition rate on hTRPA1, 0.3 μM) [X] | SMILES | stability compared with KM-001-E1 / compounds of WO2021154966A1 [2]
92.94 | 102.46 | 99.78 | 0.22 |  |  | O=C(c1ccc(F)cn1)N1CCC2(CC(O)c3cc(-c4ccccc4C4CC4)ccc32)C1 (stereo not shown) [Example 15, (5-(2-cyclopropylphenyl)-3-hydroxy-2,3-dihydrospiro[indene-1,3′-pyrrolidine]-1′-yl)(5-fluoropyridin-2-yl) ketone] | 
 |  |  |  | 10.7 | 8.4 | O=C(c1ccc(F)cn1)N1CC[C@@]2(C[C@@H](O)c3cc(-c4ccccc4C4CC4)ccc32)C1 [Example 21, ((1S,3R)-5-(2-cyclopropylphenyl)-3-hydroxy-2,3-dihydrospiro[indene-1,3′-pyrrolidine]-1′-yl)(5-fluoropyridin-2-yl)ketone] | better chemical stability than the primary alcohol compound in WO2021154966A1
